Source: patent publication US20110166079A1, “METHODS OF TREATING CANCER WITH APOE PEPTIDES” (COGNOSCI, INC., priority 2008, published 2011)
Like-named read-outs stand apart in the source and are kept apart here. Non-standard residues stand in square brackets, D forms with d. Residues, ends and D or L forms follow the SMILES beside them. No end group written: not given here. Arg(NO2) = N=C(NCCC[C@H](N)C(=O)O)N[N+](=O)[O-]; Aib = CC(C)(N)C(=O)O

How the values were obtained:
[1] = tested on: B-CLL cells; experiment: Cytotoxicity on B-CLL cells from CLL patients (MTS assay); conditions: for Fold Change: EC50 relative to COG056 control
Experimental: To determine whether COG peptides could counteract the overactivation of the Akt/NFkB pathway in B-CLL cells and effectively induce apoptosis, cytotoxicity testing was performed on freshly isolated B-CLL cells from CLL patients with COG peptides. Blood from CLL patients was collected and CD5+/CD19+ CLL cells were isolated using the RosetteSep™ Human B Cell Enrichment Cocktail. This method depletes whole blood of T cells, monocytes, and NK cells using a proprietary antibody cocktail containing anti-CD14, anti-CD2 and anti-CD16 antibodies to remove T cells, monocytes, and NK cells, respectively. The antibody cocktail crosslinks unwanted cells in human whole blood to multiple red blood cells forming immunorosettes thereby increasing the density of the rosetted cells, such that they pellet along with the free RBCs when centrifuged over a buoyant density medium such as Ficoll-Paque®. The highly enriched B-cell or B-CLL cells are left at the interface between Ficoll and the plasma.
COG peptides were applied to the isolated B-CLL cells (0.25×10^6 cells/well in a 96 well plate) for 72 hours, after which viable cells were assessed using the MTS assay ([…]).
Additional B-CLL cells and peripheral blood mononuclear cells (PBMC; i.e., normal B cells) were isolated from leukemia patients and normal volunteers, respectively, and were treated with a range of COG112 concentrations.

[2] = tested on: microglial cells; conditions: relative to COG133, microglial cells; cited from earlier work
[3] = target: T1, PP2A (Mus musculus, UniProt P63330); experiment: PP2A activity in RAW cells (immunoprecipitation / phosphate release); type: cell-based; conditions: 30 minutes, 2 μM COG112, 10 nM okadaic acid, FIG. 3
T1 construct: cells were lysed and PP2A was immunoprecipitated by adding an antibody targeted to the catalytic C-subunit of PP2A; endogenous in cells; host or cells: mouse macrophagic RAW cells
T1 sequence (P63330 whole entry): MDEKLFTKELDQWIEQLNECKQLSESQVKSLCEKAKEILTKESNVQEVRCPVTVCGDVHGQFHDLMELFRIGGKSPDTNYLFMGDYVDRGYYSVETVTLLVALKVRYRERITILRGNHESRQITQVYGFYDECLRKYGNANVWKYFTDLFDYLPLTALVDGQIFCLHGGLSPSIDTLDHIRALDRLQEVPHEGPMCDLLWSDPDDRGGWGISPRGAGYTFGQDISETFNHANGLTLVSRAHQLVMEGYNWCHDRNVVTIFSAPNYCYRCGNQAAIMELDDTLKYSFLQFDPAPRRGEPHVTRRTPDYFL
Experimental: Mouse macrophagic RAW cells were incubated with either 2 μM COG112 (SEQ ID NO: 2), 10 nM okadaic acid (an inhibitor of PP2A), or okadaic acid and COG112. After 30 minutes, cells were lysed and PP2A was immunoprecipitated by adding an antibody targeted to the catalytic C-subunit of PP2A. Half of the immunoprecipitate was separated by SDS-PAGE, blotted on to nitrocellulose, and probed with an anti-PP2AC antibody. The remaining portion was assayed for activity by adding 125 μL assay cocktail containing a phospho-threonine substrate peptide to the immunoprecipitated enzyme. After incubating at 37° C. with shaking, a 25 μL aliquot was removed and added to an ammonium molybdate solution (Upstate) that chelates free phosphate and changes color upon chelate formation. Aliquots were removed at various time intervals and the amount of free phosphate released from the peptide was determined by comparison to a phosphate standard curve. The rate of phosphate release was determined by linear fit to the time course data and was normalized to the relative PP2A concentration. […] PP2A activity was reduced in the presence of okadaic acid alone as expected. […] Thus, the active pool of PP2A in a cell can be regulated by ApoE peptides.

[4] = tested on: IκB; experiment: LPS-induced phosphorylation of IκB in BV2 microglia (Western blot); type: cell-based, mouse; conditions: 100 ng/mL LPS, 5 μM COG133, FIG. 2A
Experimental: To determine whether COG peptides modulated the PI-3 kinase/Akt pathway and subsequent activation of NFκB, the phosphorylation state of proteins in the pathway was analyzed in cells exposed to bacteria or a bacterial antigen (lipopolysaccharide) in the absence and presence of COG peptides. In a first series of experiments, mouse BV2 microglia in six well plates were incubated with 100 ng/mL of LPS alone or in the presence of 5 μM COG133 (SEQ ID NO: 1) peptide. Cells were lysed and a clarified extract prepared by centrifugation. Polyacrylamide gels were loaded with 30 μg of extract per lane and run in SDS buffer. […] Membranes were then probed with an anit-phospho-IκBα antibody. Membranes were developed with Enhanced Chemiluminescence substrates (GE healthcare) and visualized by exposure to film. Membranes were then stripped and reprobed for total IκB using a non phospho-specific anti-IκBα antibody. A duplicate blot was probed with anti-GAPDH antibodies.

[5] = tested on: NFκB; experiment: NFκB nuclear translocation in LPS-stimulated BV2 microglial cells (gel shift); type: cell-based, mouse; conditions: nuclear extracts, FIG. 2B
Experimental: In the dephosphorylated state, IκB binds to the transcription factor NFκB and prevents it from translocating to the nucleus to activate transcription of pro-survival proteins. […] A radiolabeled oligonucelotide containing a NFκB binding site was added to the proteins from the nuclear extracts and the proteins were subsequently separated by non-denaturing polyacrylamide gel electrophoresis. The amount of NFκB present in the nuclear extracts was detected by autoradiography (FIG. 2B). Nuclear NFκB was reduced in the presence of COG133 providing further evidence that this signal transduction cascade is suppressed in cells treated with ApoE peptides.

[6] = B-CLL cells, 72 hours, MTS assay

CC(=O)N[C@@H](C)C(=O)N[C@@H](CO)C(=O)NC(C)(C)C(=O)N[C@@H](CC(C)C)C(=O)N[C@@H](CCCNC(=N)N)C(=O)N[C@@H](CCCCN)C(=O)N[C@@H](CC(C)C)C(=O)NC(C)(C)C(=O)N[C@@H](CCCCN)C(=O)N[C@@H](CCCNC(=N)N)C(=O)N[C@@H](CC(C)C)C(=O)N[C@@H](CC(C)C)C(N)=O [COG1410, Ac-AS-Aib-LRKL-Aib-KRLL-NH2] (Ac-AS[Aib]LRKL[Aib]KRLL-NH2)
cytotoxic activity compared in words [1]: no difference in potency
Fold Change [1]: 2.3
EC50 ([1]; read-out: EC50 (cytotoxicity of COG compounds on B-CLL cells), isolated B-CLL cells, 72 hours, MTS assay): 5.7 ± 3 µM
potency for suppressing NO production [2]: improved potency

LLRKRLKRLHSALRVRL [COG056, reference compound]
Fold Change [1]: 1.0
EC50 ([1]; human, 72 hours): 12.9 ± 4.6 µM

CC(C)C[C@H](NC(=O)[C@H](CC(C)C)NC(=O)[C@H](CCCNC(=N)N)NC(=O)[C@H](CCCCN)NC(=O)[C@H](CCCNC(=N)N[N+](=O)[O-])NC(=O)[C@H](CC(C)C)NC(=O)[C@H](CCCNC(=N)N)NC(=O)[C@H](CCCCN)NC(=O)[C@H](CC(C)C)NC(=O)C(C)(C)NC(=O)[C@H](CO)NC(=O)[C@H](C)NC(=O)[C@H](CC(C)C)NC(=O)[C@H](CCCNC(=N)N)NC(=O)[C@@H](NC(=O)[C@H](CCCNC(=N)N)NC(=O)[C@@H](N)CC(C)C)C(C)C)C(=O)O [COG248, LRVRLAS(Aib)LKRL(nitroR)KRLL] (H-LRVRLAS[Aib]LKRL[Arg(NO2)]KRLL-OH)
cytotoxic activity compared in words [1, 6]: enhanced activity compared to COG133
Fold Change [1]: 5.5

C=C1[C@@H](O)[C@@H]2O[C@]3(CC[C@H](/C=C/[C@@H](C)[C@@H]4CC(C)=C[C@@]5(O[C@H](C[C@@](C)(O)C(=O)O)CC[C@H]5O)O4)O3)CC[C@H]2O[C@@H]1[C@@H](O)C[C@H](C)[C@H]1O[C@@]2(CCCCO2)CC[C@H]1C [okadaic acid, reference compound]
PP2A activity (rate of phosphate release) [3]: reduced

CC(=O)N[C@@H](CC(C)C)C(=O)N[C@@H](CCCNC(=N)N)C(=O)N[C@H](C(=O)N[C@@H](CCCNC(=N)N)C(=O)N[C@@H](CC(C)C)C(=O)N[C@@H](C)C(=O)N[C@@H](CO)C(=O)N[C@@H](Cc1c[nH]cn1)C(=O)N[C@@H](CC(C)C)C(=O)N[C@@H](CCCNC(=N)N)C(=O)N[C@@H](CCCCN)C(=O)N[C@@H](CC(C)C)C(=O)N[C@@H](CCCNC(=N)N)C(=O)N[C@@H](CCCCN)C(=O)N[C@@H](CCCNC(=N)N)C(=O)N[C@@H](CC(C)C)C(=O)N[C@@H](CC(C)C)C(N)=O)C(C)C [COG133]
LPS-induced phosphorylation of IκB [4]: reduces
nuclear NFκB [5]: reduced
cytotoxic activity compared in words [1, 6]: slightly improved activity relative to the COG056
Fold Change [1]: 2.9
